Experiment [1] deals with aSynL:total ratio. The experiment can be described thus: aSynL:total ratio in total RNA of SH-SY5Y cells by RT-qPCR (transcription inhibition). Particulars: SH-SY5Y, dopamine 100 μM, 24 h, no actinomycin D. The format is cell-based, human. For orientation: In qPCR the cycle at which signal appears reflects the starting amount.
The subject of a further experiment is human aSyn 3′UTR. Put plainly: Firefly luciferase-aSyn 3′UTR reporter assay in SH-SY5Y cells. The format is cell-based. Particulars: for dopamine-mediated increase in luciferase accumulation under VMAT2 overexpression: SH-SY5Y co-transfected with VMAT2 vector; for luciferase expression, Firefly/Renilla ratio, short aSyn 3′UTR vector: 100 μM for 24 hrs. How it is done: The human SH-SY5Y neuroblastoma cell line (ATCC) was cultured following the distributor's instructions. Cells were plated at a density of 4×10^5 cells per well (in 48-well plates) in wells coated with 0.1% gelatin (Specialty Media, Millipore) 24 hours prior to transfection. Transfections were performed with Lipofectamine 2000 reagent (Invitrogen) following the manufacturer's instructions. The human HEK-293T cell line (ATCC) was cultured in DMEM (Invitrogen) supplemented with 10% FBS (Invitrogen). Cells were plated at a density of 8×10^3 cells per well (96-well plates). Mir-34b-3p precursor, specific Anti-miR Mir-34b-3p inhibitor, Anti-miR Negative Control #1, and Pre-miR Negative Control #1 were purchased from Ambion. Cells were co-transfected with luciferase reporter plasmids and a small RNA or inhibitor (as indicated) using siPort NeoFx reagent (Ambion) following manufacturer's protocol. Luciferase and Renilla activities were measured 24 h or 48 h after transfection using Dual-Glo luciferase assay system (Promega).
In general terms: Reporter assays use an easily measured gene product as a stand-in for the process of interest.

Experiment [2] has as its system aSynL:total ratio. Put plainly: In situ hybridization for aSyn CDS and long 3′UTR in primary cortical neuron cultures from aSyn PAC transgenic mice. The format is cell-based. The following applies: 100 μM for 24 h, DIV 4 PAC mouse cortical neurons. How it is done:
(§1) Cultures of rodent neurons were prepared as described in ^53. Cells were maintained in vitro for 3-5 days before drug treatments or transfection using Lipofectamine 2000 (Iinvitrogen) following manufacturer's instructions.
In situ hybridization were performed using QuantiGene® ViewRNA ISH Cell Assay (Panomics) following manufacturer's instructions, with QG ViewRNA TYPE 8 Probe Sets (Panomics) designed to target either human aSyn CDS sequences (bases 264-634 from NM_000345.3; Panomics) or to target human aSynL 3′UTR sequences (bases 1180-1760 from NM_000345.3).

Experiment [3] concerns aSyn protein. The experiment can be described thus: aSyn protein by ELISA in mitochondrial and membrane fractions of SH-SY5Y cells. The class given is cell-based, human. Particulars: 100 μM for 48 h. How it is done: (§2) Mitochondria were purified using Qproteome Mitochondria Isolation Kit (Qiagen) and membrane fractions were isolated using Subcellular Protein Fractionation Kit (Pierce) following manufacturers' instructions. Human aSyn protein levels were determined using the aSyn Human ELISA kit (Invitrogen). Absorbance was read on a VersaMax ELISA Microplate Reader (Molecular Devices, Inc) at 450 nm. The amount of human aSyn was normalized to total cellular protein as determined with the DC Protein Assay Reagent kit (Bio-Rad). Mitochondrial preparations were validated by Western blot analysis for Tom20 and synaptophysin (see FIG. 12d).

The test system of experiment [4] is aSynL:total ratio. How it is done:
Total RNA was isolated using a miRNeasy kit (Qiagen) and nascent RNA was purified using the Click-iT® Nascent RNA Capture Kit (Invitrogen) following manufacturer's instructions; total and nascent RNA were then subjected to RT-qPCR analysis as below.
RT-qPCR analyses were performed as described ^60.

Experiment [5] relates to aSyn protein. Put plainly: Total endogenous aSyn protein by ELISA in SH-SY5Y cells. Particulars: 100 μM for 48 h. The class given is cell-based, human. The procedure: as §2
A general note: ELISA stands for enzyme-linked immunosorbent assay.

Experiment [6] concerns aSynL:total ratio. Put plainly: aSynL:total ratio by RT-qPCR in rat primary cortical cultures. The format is cell-based. How it is done: as §1
RT-qPCR analyses were performed as described ^60. The human aSynL:Total mRNA ratio was quantified in terms of AACt ^60 using primer pair Lh for the human long form (HaSynLfw [[…]] SEQ ID NO: 13, and HaSynLry [[…]]) SEQ ID NO: 14 and primer pair Th for human total (HaSynTfw [[…]] SEQ ID NO: 15 and HaSynTrv [[…]] SEQ ID NO: 16). For analysis of either mouse or rat, primer pairs mrL (RaSynLfw [[…]] SEQ ID NO: 17 and RaSynLrv [[…]] SEQ ID NO: 18) and mrT (RaSynTfw [[…]] SEQ ID NO: 19, RaSynTry [[…]] SEQ ID NO: 20) were used.

For a further experiment, the system named is aSyn translation. Put plainly: Endogenous aSyn protein by ELISA normalized to total aSyn mRNA in SH-SY5Y cells (aSyn translation). The class given is cell-based, human. Particulars: dopamine 100 uM for 24 h. From the text: Mitochondria were purified using Qproteome Mitochondria Isolation Kit (Qiagen) and membrane fractions were isolated using Subcellular Protein Fractionation Kit (Pierce) following manufacturers' instructions. […] Absorbance was read on a VersaMax ELISA Microplate Reader (Molecular Devices, Inc) at 450 nm. The amount of human aSyn was normalized to total cellular protein as determined with the DC Protein Assay Reagent kit (Bio-Rad). Mitochondrial preparations were validated by Western blot analysis for Tom20 and synaptophysin (see FIG. 12d). RT-qPCR analyses were performed as described ^60. […] NO: 17 and […] NO: 18) […] NO: 19, […] NO: 20) were used. The human SH-SY5Y neuroblastoma cell line (ATCC) was cultured following the distributor's instructions. Cells were plated at a density of 4×10^5 cells per well (in 48-well plates) in wells coated with 0.1% gelatin (Specialty Media, Millipore) 24 hours prior to transfection. Transfections were performed with Lipofectamine 2000 reagent (Invitrogen) following the manufacturer's instructions. The human HEK-293T cell line (ATCC) was cultured in DMEM (Invitrogen) supplemented with 10% FBS (Invitrogen). Cells were plated at a density of 8×10^3 cells per well (96-well plates). […] Luciferase and Renilla activities were measured 24 h or 48 h after transfection using Dual-Glo luciferase assay system (Promega).

Experiment [7] deals with aSyn protein. Put plainly: Colocalization of aSyn and Mitotracker in primary cortical neuron cultures from PAC transgenic mice. The format is cell-based. Particulars: primary mouse cortical neurons, 100 μM for 24 h. How it is done: as §1
Immunostainings were done as previously described ^59 with Rabbit anti-aSyn (Santa Cruz, 1:200) or Mouse anti-Synaptophysin (Millipore, 1:100) as primary antibodies, and Alexa 555 goat anti-rabbit IgG or Alexa 633 goat anti-mouse IgG (Invitrogen) secondary antibodies. MitoTracker-Orange (Invitrogen, 1:10000) was added into media for 15-20 min in living cell culture. Collocalization analyses were done in R using EBImage package; using Pearson's correlation coefficient.

In experiment [8] the test system is aSynL:total ratio. The following applies: GFP-aSyn wild-type 1.1 kb 3′UTR plasmid, lysed after 48 h.
Protocol: Northern Blots were performed using the NorthernMax kit (Ambion) following manufacturer's instructions. 10 μg of total RNA was purified using miRNeasy kit (Qiagen) and loaded per lane.

These results are taken from patent US20140323581A1, “TRANSCRIPTOME WIRING ANALYSIS IN PARKINSON'S DISEASE AND USES THEREOF” (THE TRUSTEES OF COLUMBIA UNIVERSITY IN THE CITY OF NEW YORK, priority 2011, published 2014).

Entries after “also recorded” stand apart in the source; their conditions may differ. Read-outs that look alike come from different tables or passages of the source.

Turning to `NCCc1ccc(O)c(O)c1` [dopamine], the “aSynL:total ratio in total RNA” value with aSynL:total ratio [1] is “increase”. Further, the “dopamine-mediated increase in luciferase accumulation under VMAT2 overexpression” value is “suppressed” in the experiment on human aSyn 3′UTR (dopamine 100 μM for 48 h) and “cancelled” in the experiment on human aSyn 3′UTR (dopamine 100 μM for 48 h, listed as Dopamine). Further, the “luciferase expression, Firefly/Renilla ratio, 1.1 kb human aSyn 3′UTR vector” value in the experiment with human aSyn 3′UTR (SH-SY5Y, 100 μM for 24 h) was “increased”. Besides, the “luciferase expression, Firefly/Renilla ratio, short aSyn 3′UTR vector” value is reported as “not observed” in the experiment with human aSyn 3′UTR (SH-SY5Y) and “do not influence” in the experiment with human aSyn 3′UTR (SH-SY5Y, listed as Dopamine). The “aSyn 3′UTR mediated translation (luciferase)” value in the experiment on human aSyn 3′UTR (SH-SY5Y, vector control, dopamine 100 μM for 48 h) is recorded as “potentiates”. Besides, the “aSynL:total ratio (ratio of in situ hybridization signals)” value in the experiment with aSynL:total ratio [2] is given as “increase”. Besides, the “aSyn content within total cell membrane fraction relative to whole cell lysate (ELISA)” value in the experiment on aSyn protein [3] is given as “decreased; also recorded: reduction”. Moreover, the “aSyn protein content in mitochondrial preparations relative to whole cell aSyn content (ELISA)” value with aSyn protein [3] is reported as “increased proportion; also recorded: preferentially increased”. The “aSynL:total ratio among the labeled RNA population” value in the experiment on aSynL:total ratio [4] (100 μM dopamine exclusively during the pulse-labeling period) is “robust and durable increase”; in the experiment on aSynL:total ratio [4] (100 μM dopamine exclusively post-labeling (chase)), “did not produce any effect”. Also, the “treatment time after which the increase of the aSynL:total ratio is detectable in the nascent RNA population” value with aSynL:total ratio [4] (SH-SY5Y, dopamine) was at most 4 h. For the same compound, in the experiment on aSynL:total ratio [4] (SH-SY5Y, dopamine), the “treatment time for the dopamine effect on aSynL:total ratio to become detectable in the total RNA population” value is reported as “at least 16 hrs”. In the experiment with aSynL:total ratio [4] (dopamine 100 μM with EU for 4 h, captured EU-labeled RNA), the “increase in aSynL:total ratio in nascent RNA” value is “robustly observed”. The “increase in aSynL:total ratio in total RNA” value in the experiment with aSynL:total ratio [4] (dopamine 100 μM with EU for 4 h, total RNA) is listed as “not in total RNA”. Besides, the “endogenous aSyn protein levels (ELISA, normalized to total protein)” value in the experiment on aSyn protein [5] was “significantly increased”. Moreover, the “aSynL:total ratio” value with aSynL:total ratio [6] (dopamine 10 μM for 24 hrs, cells transfected with vector encoding DAT) is given as “significantly increased the sensitivity”; with aSynL:total ratio [6] (low extracellular dopamine 10 μM for 24 h, no DAT overexpression), “resistant”; in the experiment on aSynL:total ratio [6] (rat primary cortical neurons, RT-qPCR, dopamine, picrotoxin, muscimol, NMDA 100 μM, kainic acid 50 μM, vs vehicle), “increase; also recorded: significantly increased”. Further, the “aSyn translation: endogenous aSyn protein (ELISA) normalized to total aSyn mRNA” value with aSyn translation is “significant increase”. In addition, in the experiment on aSyn protein [7], the “fraction of aSyn protein that colocalized with mitochondria (Mitotracker)” value is “significantly increased”. In addition, in the experiment with aSynL:total ratio [8], the “aSynL (1070 nt 3′UTR) transcript relative to shorter (300 nt 3′UTR) transcript, Northern blot” value is reported as “increase”.
